Test results reported in ChEMBL document CHEMBL4699634, “Series of Novel and Highly Potent Cyclic Peptide PCSK9 Inhibitors Derived from an mRNA Display Screen and Optimized via Structure-Based Design” (J Med Chem, 2020).
Numbered stars: 1 amine (or outer) side, 2 acyl side, 3 side chain; on linkers, the order of the positions; unused ones are H or OH. Bridge positions count the residues as written; N and C are the ends. Square brackets hold non-standard residues; d marks the D form. Peptide text beside a SMILES is read from it. Trp(5-F) = N[C@@H](Cc1c[nH]c2ccc(F)cc12)C(=O)O; mXylylene(5-F) = Fc1cc(C[*:1])cc(C[*:2])c1; Bip = N[C@@H](Cc1ccc(-c2ccccc2)cc1)C(=O)O; X1 = O=C(CCSCc1cccc(CSCCN[*:1])c1)[*:2]; mXylylene = c1cc(C[*:1])cc(C[*:2])c1; NMeH = CN[C@@H](Cc1c[nH]cn1)C(=O)O; NMeK = CN[C@@H](CCCCN)C(=O)O; αMeP = C[C@@]1(C(=O)O)CCCN1; Mpa = O=C(O)CCS

target: PCSK9/LDLR (Homo sapiens, UniProt Q8NBP7); test: Inhibition of avi-tagged-biotinylated human PCSK9 interaction with His-tagged human LDLR EGFa domain by LANCE Ulight Streptavidin based TR-FRET assay; format: protein assay
Sequence (Q8NBP7 31-152 limits assumed): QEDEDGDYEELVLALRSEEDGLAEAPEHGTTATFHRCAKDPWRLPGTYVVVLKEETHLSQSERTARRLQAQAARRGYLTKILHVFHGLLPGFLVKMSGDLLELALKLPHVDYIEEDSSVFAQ
Sequence (Q8NBP7 153-692 limits assumed): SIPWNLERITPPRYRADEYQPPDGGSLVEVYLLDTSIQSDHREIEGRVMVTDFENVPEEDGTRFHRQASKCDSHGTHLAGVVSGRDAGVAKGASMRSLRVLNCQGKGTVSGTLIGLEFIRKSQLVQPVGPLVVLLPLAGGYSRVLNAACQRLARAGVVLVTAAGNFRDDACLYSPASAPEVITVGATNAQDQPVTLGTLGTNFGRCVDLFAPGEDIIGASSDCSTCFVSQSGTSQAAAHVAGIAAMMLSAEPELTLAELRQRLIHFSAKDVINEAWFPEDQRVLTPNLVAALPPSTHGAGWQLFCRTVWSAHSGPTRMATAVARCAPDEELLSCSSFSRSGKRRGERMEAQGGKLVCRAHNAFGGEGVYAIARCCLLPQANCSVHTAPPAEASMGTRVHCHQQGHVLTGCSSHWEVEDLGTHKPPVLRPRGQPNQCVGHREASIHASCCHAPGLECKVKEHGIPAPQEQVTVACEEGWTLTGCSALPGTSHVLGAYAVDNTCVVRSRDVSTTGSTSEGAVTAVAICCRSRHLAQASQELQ
Sequence (P01130 22-860 partner limits assumed): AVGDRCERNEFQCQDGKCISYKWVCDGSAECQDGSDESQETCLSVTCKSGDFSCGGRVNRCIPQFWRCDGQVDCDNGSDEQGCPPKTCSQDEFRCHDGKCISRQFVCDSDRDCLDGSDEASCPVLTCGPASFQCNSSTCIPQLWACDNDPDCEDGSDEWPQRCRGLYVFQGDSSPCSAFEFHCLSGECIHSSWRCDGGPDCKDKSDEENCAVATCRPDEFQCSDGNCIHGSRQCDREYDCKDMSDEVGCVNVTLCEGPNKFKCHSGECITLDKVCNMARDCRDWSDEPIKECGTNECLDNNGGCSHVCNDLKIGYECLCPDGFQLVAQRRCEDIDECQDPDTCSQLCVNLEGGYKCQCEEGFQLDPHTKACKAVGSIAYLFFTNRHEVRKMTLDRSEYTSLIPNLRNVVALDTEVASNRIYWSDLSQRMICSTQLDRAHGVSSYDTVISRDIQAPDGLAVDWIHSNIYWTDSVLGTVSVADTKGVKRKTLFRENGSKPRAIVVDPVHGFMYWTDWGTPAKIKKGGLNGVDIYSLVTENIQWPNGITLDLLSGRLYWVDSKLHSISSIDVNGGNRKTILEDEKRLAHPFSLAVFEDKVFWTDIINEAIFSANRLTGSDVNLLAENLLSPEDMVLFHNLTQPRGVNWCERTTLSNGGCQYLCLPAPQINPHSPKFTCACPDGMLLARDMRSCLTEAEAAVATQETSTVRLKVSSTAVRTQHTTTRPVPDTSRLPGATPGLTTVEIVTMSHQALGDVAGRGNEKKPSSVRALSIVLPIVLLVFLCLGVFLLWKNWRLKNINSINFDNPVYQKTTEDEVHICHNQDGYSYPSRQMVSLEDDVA

Ki	SMILES
> 48000 nM	C[C@@H]1NC(=O)[C@H](Cc2ccc(O)cc2)NC(=O)[C@H](Cc2cnc[nH]2)NC(=O)[C@H](CC(=O)O)NC(=O)[C@H](Cc2c[nH]c3ccc(F)cc23)NC(=O)[C@H](Cc2c[nH]c3ccc(F)cc23)NC(=O)CNC(=O)[C@H](CCCCN)NC(=O)CCSCc2cccc(c2)CSC[C@@H](C(N)=O)NC1=O ([Mpa]KG[Trp(5-F)][Trp(5-F)]DHYAC-NH2; linker 1-10 via mXylylene)
88.3 nM	C[C@@H]1NC(=O)[C@@H]2CCCN2C(=O)[C@H](Cc2c[nH]c3ccc(F)cc23)NC(=O)[C@H](Cc2c[nH]c3ccc(F)cc23)NC(=O)CNC(=O)[C@H](CCCCN)NC(=O)CCSCc2cccc(c2)CSC[C@@H](C(N)=O)NC(=O)[C@]2(C)CCCN2C(=O)[C@H](Cc2ccc(O)cc2)NC1=O ([Mpa]KG[Trp(5-F)][Trp(5-F)]PAY[αMeP]C-NH2; linker 1-10 via mXylylene)
103 nM	CC(=O)N[C@H]1CSCc2cccc(c2)CSC[C@@H](C(N)=O)NC(=O)[C@@H]2CCCN2C(=O)[C@H](Cc2ccc(O)cc2)NC(=O)[C@H](Cc2c[nH]cn2)NC(=O)[C@H](CC(=O)O)NC(=O)[C@H](Cc2c[nH]c3ccc(F)cc23)NC(=O)[C@H](Cc2c[nH]c3ccccc23)NC(=O)CNC(=O)[C@H](CCCCN)NC1=O (Ac-CKGW[Trp(5-F)]DHYPC-NH2; linker 1-10 via mXylylene)
> 48000 nM	NCCCC[C@@H]1NC(=O)CCSCc2cccc(c2)CSC[C@@H](C(N)=O)NC(=O)[C@@H]2CCCN2C(=O)[C@H](Cc2ccc(O)cc2)NC(=O)[C@H](Cc2cnc[nH]2)NC(=O)[C@H](CC(=O)O)NC(=O)[C@H](Cc2c[nH]c3ccc(F)cc23)NC(=O)[C@@H](Cc2c[nH]c3ccccc23)NC(=O)CNC1=O
2010 nM	NCCCC[C@@H]1NC(=O)CCSCc2cccc(c2)CSC[C@H](C(N)=O)NC(=O)[C@@H]2CCCN2C(=O)[C@H](Cc2ccc(O)cc2)NC(=O)[C@H](Cc2cnc[nH]2)NC(=O)[C@H](CC(=O)O)NC(=O)[C@H](Cc2c[nH]c3ccc(F)cc23)NC(=O)[C@H](Cc2c[nH]c3ccc(F)cc23)NC(=O)CNC1=O
> 50000 nM	NCCCC[C@@H]1NC(=O)CCSCc2cccc(c2)CSC[C@@H](C(N)=O)NC(=O)[C@H]2CCCN2C(=O)[C@H](Cc2ccc(O)cc2)NC(=O)[C@H](Cc2cnc[nH]2)NC(=O)[C@H](CC(=O)O)NC(=O)[C@H](Cc2c[nH]c3ccc(F)cc23)NC(=O)[C@H](Cc2c[nH]c3ccc(F)cc23)NC(=O)CNC1=O
16200 nM	NCCCC[C@H]1NC(=O)CCSCc2cccc(c2)CSC[C@@H](C(N)=O)NC(=O)[C@@H]2CCCN2C(=O)[C@H](Cc2ccc(O)cc2)NC(=O)[C@H](Cc2cnc[nH]2)NC(=O)[C@H](CC(=O)O)NC(=O)[C@H](Cc2c[nH]c3ccc(F)cc23)NC(=O)[C@H](Cc2c[nH]c3ccc(F)cc23)NC(=O)CNC1=O
> 48000 nM	NCCCC[C@@H]1NC(=O)CCSCc2cccc(c2)CSC[C@@H](C(N)=O)NC(=O)[C@@H]2CCCN2C(=O)[C@H](Cc2ccc(O)cc2)NC(=O)[C@H](Cc2cnc[nH]2)NC(=O)[C@H](CC(=O)O)NC(=O)[C@@H](Cc2c[nH]c3ccccc23)NC(=O)[C@H](Cc2c[nH]c3ccc(F)cc23)NC(=O)CNC1=O
26.9 nM	C[C@H](O)[C@H]1NC(=O)[C@H](CCCCN)NC(=O)CCSCc2cccc(c2)CSCCNC(=O)[C@]2(C)CCCN2C(=O)[C@H](Cc2ccc(O)cc2)NC(=O)[C@H](Cc2cnc[nH]2)NC(=O)[C@H](CC(=O)O)NC(=O)[C@H](Cc2c[nH]c3ccc(F)cc23)NC(=O)[C@H](Cc2c[nH]c3ccc(F)cc23)NC1=O
> 48000 nM	NCCCC[C@@H]1NC(=O)CCSCc2cccc(c2)CSC[C@@H](C(N)=O)NC(=O)[C@@H]2CCCN2C(=O)[C@H](Cc2ccc(O)cc2)NC(=O)[C@@H](Cc2cnc[nH]2)NC(=O)[C@H](CC(=O)O)NC(=O)[C@H](Cc2c[nH]c3ccc(F)cc23)NC(=O)[C@H](Cc2c[nH]c3ccc(F)cc23)NC(=O)CNC1=O
29300 nM	NCCCC[C@@H]1NC(=O)CCSCc2cccc(c2)CSC[C@@H](C(N)=O)NC(=O)[C@@H]2CCCN2C(=O)[C@H](Cc2ccc(O)cc2)NC(=O)[C@H](Cc2c[nH]cn2)NC(=O)[C@H](CC(=O)O)NC(=O)[C@H](Cc2c[nH]c3ccc(F)cc23)NC(=O)[C@H](Cc2ccc(-c3ccccc3)cc2)NC(=O)CNC1=O ([Mpa]KG[Bip][Trp(5-F)]DHYPC-NH2; linker 1-10 via mXylylene)
48.1 nM	C[C@@H]1NC(=O)CCSCc2cccc(c2)CSCCNC(=O)[C@]2(C)CCCN2C(=O)[C@H](Cc2ccc(O)cc2)NC(=O)[C@H](Cc2cnc[nH]2)NC(=O)[C@H](CC(=O)O)NC(=O)[C@H](Cc2c[nH]c3ccc(F)cc23)NC(=O)[C@H](Cc2c[nH]c3ccc(F)cc23)NC(=O)[C@@H](CCCCN)NC1=O
> 48000 nM	CN1C(=O)[C@H](CC(=O)O)NC(=O)[C@H](Cc2c[nH]c3ccc(F)cc23)NC(=O)[C@H](Cc2c[nH]c3ccc(F)cc23)NC(=O)CNC(=O)[C@H](CCCCN)NC(=O)CCSCc2cccc(c2)CSC[C@@H](C(N)=O)NC(=O)[C@@H]2CCCN2C(=O)[C@H](Cc2ccc(O)cc2)NC(=O)[C@@H]1Cc1cnc[nH]1 ([Mpa]KG[Trp(5-F)][Trp(5-F)]D[NMeH]YPC-NH2; linker 1-10 via mXylylene)
342 nM	CN1C(=O)CCSCc2cccc(c2)CSC[C@@H](C(N)=O)NC(=O)[C@@H]2CCCN2C(=O)[C@H](Cc2ccc(O)cc2)NC(=O)[C@H](Cc2cnc[nH]2)NC(=O)[C@H](CC(=O)O)NC(=O)[C@H](Cc2c[nH]c3ccc(F)cc23)NC(=O)[C@H](Cc2c[nH]c3ccc(F)cc23)NC(=O)CNC(=O)[C@@H]1CCCCN ([Mpa][NMeK]G[Trp(5-F)][Trp(5-F)]DHYPC-NH2; linker 1-10 via mXylylene)

SMILES	Ki
NCCCC[C@@H]1NC(=O)CCSCc2cccc(c2)CSCCNC(=O)[C@@H]2CCCN2C(=O)[C@H](Cc2ccc(O)cc2)NC(=O)[C@H](Cc2c[nH]cn2)NC(=O)[C@H](CC(=O)O)NC(=O)[C@H](Cc2c[nH]c3ccc(F)cc23)NC(=O)[C@H](Cc2c[nH]c3ccc(F)cc23)NC(=O)CNC1=O (cyclo(DHYP[X1]KG[Trp(5-F)][Trp(5-F)]))	252 nM

target: Proprotein convertase subtilisin/kexin type 9 (Homo sapiens, UniProt Q8NBP7); test: Inhibition of AlexaFluor647-tagged cyclic peptide binding to avi-tagged-biotinylated human PCSK9 measured after 2 hrs by Lance Streptavidin Europium based FRET assay
Sequence (Q8NBP7 31-152 limits assumed): as the sequence (Q8NBP7 31-152 limits assumed) above
Sequence (Q8NBP7 153-692 limits assumed): as the sequence (Q8NBP7 153-692 limits assumed) above

Ki	SMILES
175 nM	COc1ccc(C[C@@H]2NC(=O)[C@H]([C@@H](C)O)NC(=O)[C@@H]3CCCCC(=O)NCc4ccc(cc4)C[C@H](NC(=O)[C@@H](C)NC(=O)[C@H](C)NC(=O)CCSCc4cccc(c4)CSCCNC(=O)[C@]4(C)CCCN4C2=O)C(=O)N[C@@H](Cc2c[nH]c4ccc(F)cc24)C(=O)N3)cc1
23.1 nM	C[C@@]12CCCN1C(=O)[C@H](Cc1ccc(O)cc1)NC(=O)[C@H](Cc1cnc[nH]1)NC(=O)[C@H](CC(=O)O)NC(=O)[C@H](Cc1c[nH]c3ccc(F)cc13)NC(=O)[C@H](Cc1c[nH]c3ccc(F)cc13)NC(=O)[C@@H](C1CCCC1)NC(=O)[C@H](CCCCN)NC(=O)CCSCc1cccc(c1)CSCCNC2=O
4 nM	COc1ccc(C[C@@H]2NC(=O)[C@H]([C@@H](C)O)NC(=O)[C@@H]3CCCCC(=O)NCc4cccc(c4)C[C@H](NC(=O)[C@@H](C)NC(=O)[C@H](C)NC(=O)CCSCc4cccc(c4)CSCCNC(=O)[C@]4(C)CCCN4C2=O)C(=O)N[C@@H](Cc2c[nH]c4ccc(F)cc24)C(=O)N3)cc1
11 nM	C[C@H]1NC(=O)[C@H](CCCCN)NC(=O)CCSCc2cc(F)cc(c2)CSC[C@@H](C(N)=O)NC(=O)[C@]2(C)CCCN2C(=O)[C@H](Cc2ccc(O)cc2)NC(=O)[C@H]([C@@H](C)O)NC(=O)[C@@H]2CCCN2C(=O)[C@H](Cc2c[nH]c3ccc(F)cc23)NC(=O)[C@H](Cc2c[nH]c3ccc(F)cc23)NC1=O ([Mpa]K[dA][Trp(5-F)][Trp(5-F)]PTY[αMeP]C-NH2; linker 1-10 via mXylylene(5-F))
